Results published in PubChem BioAssay AID330 (DTP/NCI, 2004).
“And” between values parts separate entries of the source, which are not always exact repeats. Equal values may be shown once. Inconclusive results and toxic doses are left out. The calls were made as follows: active = survival T/C of 150% or more; inactive = T/C below 125% in these data.

Tested on: P388 leukemia ip, CD2F1 mice, survival T/C
Assay: NCI In Vivo Anticancer Drug Screen. Data for tumor model P388 Leukemia (intraperitoneal) in CD2F1 (CDF1) mice
Settings: endpoint: median survival time, higher = longer survival
In short: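 Mice carrying the transplanted tumor received test compound or vehicle. Survival was recorded in each group, and the value is the treated-group measurement divided by that of the vehicle-treated control group.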

[1] = dose: 50.0 mg/kg/injection, schedule: Q01DX009 (ip), vehicle: saline with Tween-80
[2] = dose: 100.0 mg/kg/injection, schedule: Q01DX009 (ip), vehicle: saline with Tween-80
[3] = dose: 50.0 mg/kg/injection, schedule: Q01DX005 (ip), vehicle: Klucel (hydroxypropylcellulose) (HPC)
[4] = dose: 6.25 mg/kg/injection, schedule: Q01DX009 (ip), vehicle: saline with Tween-80
[5] = dose: 12.5 mg/kg/injection, schedule: Q01DX009 (ip), vehicle: saline with Tween-80
[6] = dose: 200.0 mg/kg/injection, schedule: Q01DX009 (ip), vehicle: saline with Tween-80
[7] = dose: 25.0 mg/kg/injection, schedule: Q01DX009 (ip), vehicle: saline with Tween-80
[8] = dose: 100.0 mg/kg/injection, schedule: Q01DX005 (ip), vehicle: Klucel (hydroxypropylcellulose) (HPC)

Measured: T/C

CCS/C(C#N)=C/c1ccccc1Cl
inactive: [1] 103 % of control | [2] 112 % of control

CC(NNC(=S)N1CCCCCC1)c1ccccn1 (centres undefined)
inactive: dose: 12.5 mg/kg/injection, schedule: Q01DX005 (ip), vehicle: Klucel (hydroxypropylcellulose) (HPC) 103 % of control | dose: 25.0 mg/kg/injection, schedule: Q01DX005 (ip), vehicle: Klucel (hydroxypropylcellulose) (HPC) 106 % of control | [3] 112 % of control and 113 % of control

CCC1CCC2CCCCN2CO1 (centres undefined)
inactive: dose: 12.5 mg/kg/injection, schedule: Q01DX005 (ip), vehicle: saline 101 % of control | dose: 25.0 mg/kg/injection, schedule: Q01DX005 (ip), vehicle: saline 118 % of control | dose: 50.0 mg/kg/injection, schedule: Q01DX005 (ip), vehicle: saline 114 % of control and 123 % of control | dose: 100.0 mg/kg/injection, schedule: Q01DX005 (ip), vehicle: saline 114 % of control and 121 % of control

COc1cccc(/C=N\NC(=O)CNC(=O)Nc2ccc(Cl)c(Cl)c2)c1OC
inactive: dose: 15.0 mg/kg/injection, schedule: Q01DX005 (ip), vehicle: saline with Tween-80 91 % of control | dose: 30.0 mg/kg/injection, schedule: Q01DX005 (ip), vehicle: saline with Tween-80 88 % of control | dose: 240.0 mg/kg/injection, schedule: Q01DX005 (ip), vehicle: saline with Tween-80 95 % of control

CC(=O)NC1C([Se][As](C)C)OC(COC(C)=O)C(OC(C)=O)C1OC(C)=O (centres undefined)
inactive: [4] 122 % of control | [5] 116 % of control

CCO/C=C1\SC(=S)N(c2cccc(OC)c2)C1=O
inactive: [2] 118 % of control | dose: 117.0 mg/kg/injection, schedule: Q04DX003 (ip), vehicle: saline with Tween-80 113 % of control | dose: 178.0 mg/kg/injection, schedule: Q04DX003 (ip), vehicle: saline with Tween-80 118 % of control | [6] 118 % of control | dose: 266.0 mg/kg/injection, schedule: Q04DX003 (ip), vehicle: saline with Tween-80 109 % of control

CC(=O)OC1=CC(=O)N(C(=O)c2ccc(Cl)cc2)C1
inactive: dose: 50.0 mg/kg/injection, schedule: Q01DX009 (ip), vehicle: Klucel (hydroxypropylcellulose) (HPC) 109 % of control | dose: 100.0 mg/kg/injection, schedule: Q01DX009 (ip), vehicle: Klucel (hydroxypropylcellulose) (HPC) 115 % of control | dose: 200.0 mg/kg/injection, schedule: Q01DX009 (ip), vehicle: Klucel (hydroxypropylcellulose) (HPC) 115 % of control

CC12CCC3C(CCC4C(C)(C)C(O)CCC34C)(C1)OC2CO (centres undefined)
inactive: dose: 2.25 mg/kg/injection, schedule: Q01DX009 (ip), vehicle: Klucel (hydroxypropylcellulose) (HPC) 104 % of control | dose: 4.5 mg/kg/injection, schedule: Q01DX009 (ip), vehicle: Klucel (hydroxypropylcellulose) (HPC) 108 % of control | dose: 9.0 mg/kg/injection, schedule: Q01DX009 (ip), vehicle: Klucel (hydroxypropylcellulose) (HPC) 104 % of control | dose: 18.0 mg/kg/injection, schedule: Q01DX009 (ip), vehicle: Klucel (hydroxypropylcellulose) (HPC) 118 % of control

O/N=C/c1cnns1
inactive: dose: 50.0 mg/kg/injection, schedule: Q01DX005 (ip), vehicle: saline with Tween-80 105 % of control | dose: 100.0 mg/kg/injection, schedule: Q01DX005 (ip), vehicle: saline with Tween-80 100 % of control | dose: 200.0 mg/kg/injection, schedule: Q01DX005 (ip), vehicle: saline with Tween-80 100 % of control

CC(C)(C)N(O)c1cccc(P(c2ccccc2)c2ccccc2)c1
inactive: dose: 50.0 mg/kg/injection, schedule: Q04DX002 (ip), vehicle: saline with Tween-80 91 % of control | dose: 100.0 mg/kg/injection, schedule: Q04DX002 (ip), vehicle: saline with Tween-80 94 % of control | dose: 200.0 mg/kg/injection, schedule: Q04DX002 (ip), vehicle: saline with Tween-80 100 % of control

COc1cc(CCl)c(I)c(OC)c1OC
inactive: dose: 100.0 mg/kg/injection, schedule: Q01DX001 (ip), vehicle: Klucel (hydroxypropylcellulose) (HPC) 103 % of control | dose: 200.0 mg/kg/injection, schedule: Q01DX001 (ip), vehicle: Klucel (hydroxypropylcellulose) (HPC) 107 % of control | dose: 400.0 mg/kg/injection, schedule: Q01DX001 (ip), vehicle: Klucel (hydroxypropylcellulose) (HPC) 102 % of control

OCNC(=S)c1c(Cl)cccc1Cl
inactive: [7] 111 % of control | [1] 111 % of control | [2] 109 % of control | [6] 100 % of control

Oc1ccccc1/C=N/NC(=S)NC1CC2C=CC1C2 (centres undefined)
inactive: dose: 12.5 mg/kg/injection, schedule: Q01DX009 (ip), vehicle: olive oil, sesame oil, peanut oil 100 % of control | dose: 25.0 mg/kg/injection, schedule: Q01DX009 (ip), vehicle: olive oil, sesame oil, peanut oil 102 % of control | dose: 50.0 mg/kg/injection, schedule: Q01DX009 (ip), vehicle: olive oil, sesame oil, peanut oil 97 % of control | dose: 100.0 mg/kg/injection, schedule: Q01DX009 (ip), vehicle: olive oil, sesame oil, peanut oil 97 % of control | dose: 200.0 mg/kg/injection, schedule: Q01DX009 (ip), vehicle: olive oil, sesame oil, peanut oil 102 % of control | dose: 400.0 mg/kg/injection, schedule: Q01DX009 (ip), vehicle: olive oil, sesame oil, peanut oil 97 % of control

CCN(CC)CCOC(=O)CC1CCCCC1
inactive: [1] 102 % of control | [2] 100 % of control | [6] 99 % of control

c1cc2cc(c1)CSCCCSCc1cccc(c1)CSCCCSC2
inactive: dose: 50.0 mg/kg/injection, schedule: Q04DX002 (ip), vehicle: saline 103 % of control | dose: 100.0 mg/kg/injection, schedule: Q04DX002 (ip), vehicle: saline 105 % of control | dose: 200.0 mg/kg/injection, schedule: Q04DX002 (ip), vehicle: saline 100 % of control

O=C(/C=C/c1ccc(OCc2ccccc2)cc1)c1cccc([N+](=O)[O-])c1
inactive: dose: 50.0 mg/kg/injection, schedule: Q01DX009 (ip), vehicle: saline + alcohol 100 % of control | dose: 100.0 mg/kg/injection, schedule: Q01DX009 (ip), vehicle: saline + alcohol 92 % of control | dose: 200.0 mg/kg/injection, schedule: Q01DX009 (ip), vehicle: saline + alcohol 89 % of control

NC(=O)NC(c1ccccc1)C(O)(c1ccccc1)c1ccccc1 (centres undefined)
inactive: [1] 87 % of control | [2] 93 % of control | [6] 96 % of control

CC1=NN(C(=O)c2ccncc2)C(=O)C1N=Nc1c(C)n(C)n(-c2ccccc2)c1=O (centres undefined)
inactive: [1] 102 % of control | [2] 101 % of control | [6] 99 % of control

O=C1SC(Nc2cccc([N+](=O)[O-])c2)/C(=N\N=C2/C(Nc3cccc([N+](=O)[O-])c3)SC(=O)N2Cc2ccccc2)N1Cc1ccccc1 (centres undefined)
inactive: [3] 92 % of control | [8] 87 % of control

CCOC(=O)C1=C(C)NC(=O)NC1c1ccc([N+](=O)[O-])s1 (centres undefined)
inactive: [3] 87 % of control | [8] 97 % of control | dose: 200.0 mg/kg/injection, schedule: Q01DX005 (ip), vehicle: Klucel (hydroxypropylcellulose) (HPC) 91 % of control

C[P+](CCOC(=O)NC(Cc1ccccc1)C(=O)O)(c1ccccc1)c1ccccc1 (centres undefined)
inactive: [1] 94 % of control | [2] 103 % of control

CCCCCCCCCCSCC(N)CO (centres undefined)
inactive: [4] 93 % of control | [5] 100 % of control | [7] 100 % of control

CS(=O)(=O)c1cc(C(F)(F)F)cc([N+](=O)[O-])c1Cl
inactive: [7] 109 % of control | [1] 100 % of control

O=C1NC2C(=CC(O)C(O)C2O)c2cc3c(cc21)OCO3 (centres undefined)
inactive: dose: 3.12 mg/kg/injection, schedule: Q01DX009 (ip), vehicle: saline + alcohol 102 % of control | dose: 6.25 mg/kg/injection, schedule: Q01DX005 (ip), vehicle: saline + alcohol 111 % of control | dose: 6.25 mg/kg/injection, schedule: Q01DX009 (ip), vehicle: saline + alcohol 102 % of control | dose: 12.5 mg/kg/injection, schedule: Q01DX005 (ip), vehicle: saline + alcohol 111 % of control | dose: 25.0 mg/kg/injection, schedule: Q01DX005 (ip), vehicle: saline + alcohol 105 % of control | dose: 25.0 mg/kg/injection, schedule: Q01DX009 (ip), vehicle: saline + alcohol 101 % of control | dose: 50.0 mg/kg/injection, schedule: Q01DX005 (ip), vehicle: saline + alcohol 105 % of control
